Values joined by “and” are separate entries in the source; they are usually repeats but may differ in a detail not shown here. Equal values may be shown once. Inconclusive results and toxic doses are left out.
Test system: CD2F1 mice, L1210 leukemia ip, survival T/C
Assay: NCI In Vivo Anticancer Drug Screen. Data for tumor model L1210 Leukemia (intraperitoneal) in CD2F1 (CDF1) mice
Settings: higher = longer survival
Method in brief: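 Compound-dosed mice with transplantable tumor versus matched vehicle controls; endpoint ratio T/C reported.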

[1] = endpoint: mean survival time, dose: 100.0 mg/kg/injection, schedule: Q04DX003 (ip), vehicle: saline with Tween-80
[2] = endpoint: mean survival time, dose: 200.0 mg/kg/injection, schedule: Q04DX003 (ip), vehicle: saline with Tween-80
[3] = endpoint: mean survival time, dose: 400.0 mg/kg/injection, schedule: Q04DX003 (ip), vehicle: saline with Tween-80
[4] = endpoint: median survival time, dose: 3.12 mg/kg/injection, schedule: Q04DX003 (ip), vehicle: saline
[5] = endpoint: median survival time, dose: 6.25 mg/kg/injection, schedule: Q04DX003 (ip), vehicle: saline
[6] = endpoint: median survival time, dose: 12.5 mg/kg/injection, schedule: Q04DX003 (ip), vehicle: saline
[7] = endpoint: median survival time, dose: 25.0 mg/kg/injection, schedule: Q04DX003 (ip), vehicle: saline
[8] = endpoint: mean survival time, dose: 100.0 mg/kg/injection, schedule: Q01DX009 (ip), vehicle: saline with Tween-80
[9] = endpoint: mean survival time, dose: 200.0 mg/kg/injection, schedule: Q01DX009 (ip), vehicle: saline with Tween-80
[10] = endpoint: mean survival time, dose: 100.0 mg/kg/injection, schedule: Q01DX001 (ip), vehicle: saline with Tween-80
[11] = endpoint: mean survival time, dose: 200.0 mg/kg/injection, schedule: Q01DX001 (ip), vehicle: saline with Tween-80
[12] = endpoint: mean survival time, dose: 400.0 mg/kg/injection, schedule: Q01DX001 (ip), vehicle: saline with Tween-80
[13] = endpoint: mean survival time, dose: 100.0 mg/kg/injection, schedule: Q04DX003 (ip), vehicle: other

Compound: COc1c(O)c2c(c3cc(C(=O)N4CCc5c4c(O)c(OC)c4[nH]c(C(=O)N6CC7CC78C6=CC(=O)c6[nH]cc(C)c68)cc54)[nH]c13)CCN2C(N)=O (configuration not stated)
- T/C (endpoint: mean survival time, dose: 1.0 micrograms/kg/injection, schedule: Q01DX009 (ip), vehicle: other): 116 % of control
- T/C (endpoint: mean survival time, dose: 4.4 micrograms/kg/injection, schedule: Q04DX003 (ip), vehicle: other): 106 % of control
- T/C (endpoint: mean survival time, dose: 6.6 micrograms/kg/injection, schedule: Q04DX003 (ip), vehicle: other): 104 % of control
- T/C (endpoint: mean survival time, dose: 10.0 micrograms/kg/injection, schedule: Q04DX003 (ip), vehicle: other): 116 % of control
- T/C (endpoint: mean survival time, dose: 22.5 micrograms/kg/injection, schedule: Q04DX003 (ip), vehicle: other): 122 % of control
- T/C (endpoint: mean survival time, dose: 30.0 micrograms/kg/injection, schedule: Q01DX009 (ip), vehicle: other): 124 % of control
- T/C (endpoint: mean survival time, dose: 100.0 micrograms/kg/injection, schedule: Q04DX003 (ip), vehicle: other): 101 % of control

Compound: O=C(CC(=O)Nc1ccccc1)Nc1ccccc1
- T/C [1]: 100 % of control
- T/C [2]: 100 % of control
- T/C [3]: 99 % of control

Compound: NC(=N\O)/C(N)=N/O.[Cl][Pt][Cl]
- T/C [4]: 100 % of control
- T/C [5]: 103 % of control
- T/C [6]: 97 % of control
- T/C [7]: 103 % of control
- T/C (endpoint: median survival time, dose: 50.0 mg/kg/injection, schedule: Q04DX003 (ip), vehicle: saline): 109 % of control
- T/C (endpoint: median survival time, dose: 100.0 mg/kg/injection, schedule: Q04DX003 (ip), vehicle: saline): 112 % of control
- T/C (endpoint: median survival time, dose: 200.0 mg/kg/injection, schedule: Q04DX003 (ip), vehicle: saline): 123 % of control

Compound: CN(C)C(=S)Nc1ccccc1
- T/C [8]: 95 % of control
- T/C [1]: 93 % of control
- T/C [9]: 95 % of control
- T/C [2]: 90 % of control
- T/C [3]: 88 % of control

Compound: COC(=O)NC1C(C)OC(OC2C/C=C(/C)C3C=CC4C(OC5CC(OC6CC(OC7CC(O)C(O)C(C)O7)C(OC7CC(O)C(OC)C(C)O7)C(C)O6)C(O)C(C)O5)C(C)CC(C)C4C3(C)/C(O)=C3\C(=O)OC4(CC(C)C(CO)=CC4/C=C\2C)C3=O)CC1(C)[N+](=O)[O-] (configuration not stated)
- T/C (endpoint: median survival time, dose: 12.5 mg/kg/injection, schedule: Q01DX009 (ip), vehicle: water): 109 % of control
- T/C (endpoint: median survival time, dose: 25.0 mg/kg/injection, schedule: Q01DX009 (ip), vehicle: water): 118 % of control
- T/C (endpoint: median survival time, dose: 50.0 mg/kg/injection, schedule: Q01DX009 (ip), vehicle: water): 110 % of control

Compound: CCNc1ncc2ccccc2c1-c1ccc(NCCN(CCCl)CCCl)cc1
- T/C (endpoint: mean survival time, dose: 25.0 mg/kg/injection, schedule: Q04DX003 (ip), vehicle: water): 98 % of control
- T/C (endpoint: mean survival time, dose: 50.0 mg/kg/injection, schedule: Q04DX003 (ip), vehicle: water): 100 % of control
- T/C (endpoint: mean survival time, dose: 100.0 mg/kg/injection, schedule: Q04DX003 (ip), vehicle: water): 90 % of control

Compound: C=C[C](=C)[Pb]([CH2]C)([CH2]C)[CH2]C
- T/C (endpoint: mean survival time, dose: 75.0 mg/kg/injection, schedule: Q01DX001 (ip), vehicle: saline): 100 % of control
- T/C (endpoint: mean survival time, dose: 150.0 mg/kg/injection, schedule: Q01DX001 (ip), vehicle: saline): 97 % of control
- T/C (endpoint: mean survival time, dose: 300.0 mg/kg/injection, schedule: Q01DX001 (ip), vehicle: saline): 107 % of control

Compound: CCCCCCCCCCCC[N+]1(C)CCC[N+](C)(CCCCCCCCCCCC)CC1 (configuration not stated)
- T/C (endpoint: mean survival time, dose: 18.7 mg/kg/injection, schedule: Q01DX001 (ip), vehicle: saline with Tween-80): 116 % of control
- T/C (endpoint: mean survival time, dose: 37.5 mg/kg/injection, schedule: Q01DX001 (ip), vehicle: saline with Tween-80): 98 % of control
- T/C (endpoint: mean survival time, dose: 75.0 mg/kg/injection, schedule: Q01DX001 (ip), vehicle: saline with Tween-80): 113 % of control and 101 % of control

Compound: CCNC(=O)Nc1nc2ccccc2[nH]1
- T/C (endpoint: mean survival time, dose: 50.0 mg/kg/injection, schedule: Q01DX009 (ip), vehicle: saline with Tween-80): 101 % of control

Compound: CNC(=S)Nc1ncn[nH]1
- T/C (endpoint: mean survival time, dose: 12.5 mg/kg/injection, schedule: Q01DX001 (ip), vehicle: carboxymethylcellulose (CMC)): 95 % of control
- T/C (endpoint: mean survival time, dose: 25.0 mg/kg/injection, schedule: Q01DX001 (ip), vehicle: carboxymethylcellulose (CMC)): 93 % of control
- T/C (endpoint: mean survival time, dose: 50.0 mg/kg/injection, schedule: Q01DX001 (ip), vehicle: carboxymethylcellulose (CMC)): 93 % of control
- T/C (endpoint: mean survival time, dose: 100.0 mg/kg/injection, schedule: Q01DX001 (ip), vehicle: carboxymethylcellulose (CMC)): 91 % of control
- T/C (endpoint: mean survival time, dose: 200.0 mg/kg/injection, schedule: Q01DX001 (ip), vehicle: carboxymethylcellulose (CMC)): 91 % of control

Compound: CC(=O)Oc1cc([N+](=O)[O-])ccc1C(=O)O
- T/C [8]: 102 % of control
- T/C [9]: 102 % of control

Compound: Cn1ccccc1=S
- T/C [10]: 108 % of control
- T/C [11]: 107 % of control
- T/C [12]: 103 % of control

Compound: OCC1OC(n2cnc3c(/C=C(/O)c4ccccc4)ncnc32)C(O)C1O (configuration not stated)
- T/C (endpoint: mean survival time, dose: 12.5 mg/kg/injection, schedule: Q01DX005 (ip), vehicle: distilled water + Tween-80): 102 % of control
- T/C (endpoint: mean survival time, dose: 25.0 mg/kg/injection, schedule: Q01DX005 (ip), vehicle: distilled water + Tween-80): 91 % of control
- T/C (endpoint: mean survival time, dose: 50.0 mg/kg/injection, schedule: Q01DX005 (ip), vehicle: distilled water + Tween-80): 87 % of control
- T/C (endpoint: mean survival time, dose: 100.0 mg/kg/injection, schedule: Q01DX005 (ip), vehicle: distilled water + Tween-80): 90 % of control
- T/C (endpoint: mean survival time, dose: 200.0 mg/kg/injection, schedule: Q01DX005 (ip), vehicle: distilled water + Tween-80): 98 % of control

Compound: CC([O-])C(=O)[O-].NCC1CCC1CN.[Pt+4] (configuration not stated)
- T/C (endpoint: median survival time, dose: 0.78 mg/kg/injection, schedule: Q04DX003 (ip), vehicle: saline): 114 % of control
- T/C (endpoint: median survival time, dose: 1.56 mg/kg/injection, schedule: Q04DX003 (ip), vehicle: saline): 120 % of control
- T/C [4]: 156 % of control
- T/C [5]: 156 % of control
- T/C [6]: 192 % of control and 341 % of control
- T/C [7]: 168 % of control and 223 % of control

Compound: CC(C)(C)OC(=O)NC(CSSCC(NC(=O)OC(C)(C)C)C(=O)O)C(=O)O (configuration not stated)
- T/C [1]: 92 % of control
- T/C [2]: 92 % of control
- T/C [3]: 90 % of control

Compound: O=C(C=C(C(F)(F)F)C(F)(F)F)c1ccc(Br)cc1
- T/C (endpoint: mean survival time, dose: 12.5 mg/kg/injection, schedule: Q01DX009 (ip), vehicle: other): 107 % of control
- T/C (endpoint: mean survival time, dose: 25.0 mg/kg/injection, schedule: Q01DX009 (ip), vehicle: other): 110 % of control
- T/C [13]: 105 % of control

Compound: CC(C)(C)NC[Si](C)(C)C
- T/C (endpoint: mean survival time, dose: 25.0 mg/kg/injection, schedule: Q01DX009 (ip), vehicle: saline): 94 % of control
- T/C (endpoint: mean survival time, dose: 50.0 mg/kg/injection, schedule: Q01DX009 (ip), vehicle: saline): 101 % of control

Compound: COc1cccc2c1C(=O)c1c(O)c3c(c(O)c1C2=O)CC(O)(/C(C)=N/NC(=O)CCCC(=O)N/N=C(\C)C1(O)Cc2c(O)c4c(c(O)c2C(OC2CC(N)C(O)C(C)O2)C1)C(=O)c1c(OC)cccc1C4=O)CC3OC1CC(N)C(O)C(C)O1 (configuration not stated)
- T/C (endpoint: mean survival time, dose: 0.2 mg/kg/injection, schedule: Q01DX009 (ip), vehicle: water): 101 % of control
- T/C (endpoint: mean survival time, dose: 0.39 mg/kg/injection, schedule: Q01DX009 (ip), vehicle: water): 98 % of control
- T/C (endpoint: mean survival time, dose: 0.78 mg/kg/injection, schedule: Q01DX009 (ip), vehicle: water): 109 % of control
- T/C (endpoint: mean survival time, dose: 1.56 mg/kg/injection, schedule: Q01DX009 (ip), vehicle: water): 104 % of control
- T/C (endpoint: mean survival time, dose: 3.13 mg/kg/injection, schedule: Q01DX009 (ip), vehicle: water): 114 % of control

Compound: O=C1NC(=O)C2(CCN(Cc3ccccc3)CC2)N1
- T/C [10]: 104 % of control
- T/C [11]: 101 % of control
- T/C [12]: 101 % of control

Compound: c1ccc2c(c1)C1c3cccc[n+]3C2C2C1CC1C3c4ccccc4C(C12)[n+]1ccccc13 (configuration not stated)
- T/C (endpoint: mean survival time, dose: 12.5 mg/kg/injection, schedule: Q04DX003 (ip), vehicle: saline): 98 % of control

Compound: N#CCN(CC#N)CCN(CC#N)CC#N
- T/C [8]: 92 % of control
- T/C [1]: 97 % of control
- T/C [9]: 93 % of control
- T/C [2]: 97 % of control
- T/C (endpoint: mean survival time, dose: 400.0 mg/kg/injection, schedule: Q01DX009 (ip), vehicle: saline with Tween-80): 104 % of control
- T/C [3]: 97 % of control

Compound: Cc1ccc(C2=CSc3ccccc3N2)c(C)c1
- T/C (endpoint: mean survival time, dose: 100.0 mg/kg/injection, schedule: Q04DX002 (ip), vehicle: other): 96 % of control
- T/C (endpoint: mean survival time, dose: 200.0 mg/kg/injection, schedule: Q04DX002 (ip), vehicle: other): 100 % of control
- T/C (endpoint: mean survival time, dose: 400.0 mg/kg/injection, schedule: Q04DX002 (ip), vehicle: other): 100 % of control

Compound: CC(=O)c1ccc(C(=O)CC(O)(C(F)(F)F)C(F)(F)F)cc1
- T/C (endpoint: mean survival time, dose: 50.0 mg/kg/injection, schedule: Q01DX009 (ip), vehicle: other): 98 % of control
- T/C (endpoint: mean survival time, dose: 100.0 mg/kg/injection, schedule: Q01DX009 (ip), vehicle: other): 104 % of control
- T/C [13]: 95 % of control
- T/C (endpoint: mean survival time, dose: 200.0 mg/kg/injection, schedule: Q01DX009 (ip), vehicle: other): 106 % of control
- T/C (endpoint: mean survival time, dose: 200.0 mg/kg/injection, schedule: Q04DX003 (ip), vehicle: other): 97 % of control

— PubChem BioAssay AID256 (DTP/NCI, 2004)
